{"source": "patent US20070292528A1", "about": "“Kcnma1 as a Therapeutic Target in Cancer Treatment” (priority 2003, published 2007)", "key": {"PC-3": {"system": "PC-3", "test": "Growth (cell count) of PC-3 under iberiotoxin/17β-estradiol treatment", "format": "cell-based, human", "conditions": "two days", "method": "(§1) “K” represents a control; “I” represents treatment with 0.05 μM Iberiotoxin (Sigma); “E” represents treatment with 0.1 μM Estradiol; and “E+I” represents treatment with both 0.05 μM Iberiotoxin and 0.1 μM Estradiol. Cells were grown in OPTI-MEM (Invitrogen) +0.4% Albu-max (Invitrogen) for two days.\n(§2) Cell culture: As standard, the cells were grown in OPTIMEM (Invitrogen) containing 10% FCS (Amimed) and 1% Pen/Strep (Amimed). For iberiotoxin/17β-estradiol treatment 25000 cells were seeded in OPTIMEM, 10% FCS into 6 well plates (Falcon). After one day incubation, the medium was changed to OPTIMEM 1%FCS, 1% Pen/Strep. After another day of incubation the experiment was started by changing the Medium to OPTIMEM 0.4% Albumax (Invitrogen), 1% Pen/Strep containing either only solvents, 50 nM iberiotoxin (Sigma), 100 nM 17β-estradiol (Sigma), or a combination of both. After two days of incubation, the cells were collected and counted."}, "BPH-1": {"system": "BPH-1", "test": "Growth (cell count) of BPH-1 under iberiotoxin/17β-estradiol treatment", "format": "cell-based, human", "conditions": "two days; for effect on estradiol-stimulated growth of BPH-1: 0.05 μM Iberiotoxin + 0.1 μM Estradiol", "method": "as §1, §2"}, "[1]": {"system": "whole cell conductances of BPH-1 cells", "test": "Whole cell patch clamp, BPH-1 cells", "format": "cell-based, human", "conditions": "iberiotoxin 30 nM, preliminary"}, "[2]": {"system": "whole cell conductances of PC-3 cells", "test": "Whole cell patch clamp, PC-3 cells", "format": "cell-based, human", "conditions": "iberiotoxin 30 nM, preliminary"}, "LNCaP": {"system": "LNCaP", "test": "Growth (cell count) of LNCaP under iberiotoxin/17β-estradiol treatment", "format": "cell-based, human", "conditions": "two days; for effect on estradiol-stimulated growth of LNCaP: 0.05 μM Iberiotoxin + 0.1 μM Estradiol", "method": "as §1, §2"}, "[3]": {"system": "potassium channels in membrane patches of BPH-1 cells", "test": "Patch clamp, cell excised inside/out membrane patches of BPH-1 cells", "format": "cell-based, human", "conditions": "preliminary", "from_the_text": "(§3) Numerous channels are active under high (1 mmol/l) intracellular Ca^2+ concentration in the membrane patch from PC-3 cells (A), thus single channel currents cannot be resolved. In contrast, little channel activity is present in the BPH-1 membrane patch (B).\n(§4) Patch clamp recording was used to further assess the role of KCNMA1.\n(§5) The membrane voltage of PC-3 cells is hyperpolarized when compared with that of BPH-1 cells. Moreover, paxillin inhibited potassium channels in cell excised inside/out membrane patches of PC-3 cells, but not in membrane patches of BPH-1 cells. In cell excised inside/out membrane patches of PC-3 cells we found pronounced activity of Ca^2+ activated K^+ channels, while little channel activity was found in excised membrane patches of BPH-1 cells (FIG. 10). Removal of Ca^2+ from the cytosolic side (0 mmol/l) abolished channel activity in both membrane patches of PC-3 and BPH-1 cells. Channel activity was recovered at cytosolic Ca^2+ concentrations of 1 μmol/l (0.001). These preliminary results fit very well to the expression data of KCNMA1 obtained so far."}, "[4]": {"molecular_target": "T1, potassium channels in membrane patches of PC-3 cells (Homo sapiens, UniProt Q12791)", "T1 construct": "endogenous in cells; host or cells: PC-3 prostate cancer cells (excised inside/out membrane patches)", "T1 sequence (Q12791 whole entry)": "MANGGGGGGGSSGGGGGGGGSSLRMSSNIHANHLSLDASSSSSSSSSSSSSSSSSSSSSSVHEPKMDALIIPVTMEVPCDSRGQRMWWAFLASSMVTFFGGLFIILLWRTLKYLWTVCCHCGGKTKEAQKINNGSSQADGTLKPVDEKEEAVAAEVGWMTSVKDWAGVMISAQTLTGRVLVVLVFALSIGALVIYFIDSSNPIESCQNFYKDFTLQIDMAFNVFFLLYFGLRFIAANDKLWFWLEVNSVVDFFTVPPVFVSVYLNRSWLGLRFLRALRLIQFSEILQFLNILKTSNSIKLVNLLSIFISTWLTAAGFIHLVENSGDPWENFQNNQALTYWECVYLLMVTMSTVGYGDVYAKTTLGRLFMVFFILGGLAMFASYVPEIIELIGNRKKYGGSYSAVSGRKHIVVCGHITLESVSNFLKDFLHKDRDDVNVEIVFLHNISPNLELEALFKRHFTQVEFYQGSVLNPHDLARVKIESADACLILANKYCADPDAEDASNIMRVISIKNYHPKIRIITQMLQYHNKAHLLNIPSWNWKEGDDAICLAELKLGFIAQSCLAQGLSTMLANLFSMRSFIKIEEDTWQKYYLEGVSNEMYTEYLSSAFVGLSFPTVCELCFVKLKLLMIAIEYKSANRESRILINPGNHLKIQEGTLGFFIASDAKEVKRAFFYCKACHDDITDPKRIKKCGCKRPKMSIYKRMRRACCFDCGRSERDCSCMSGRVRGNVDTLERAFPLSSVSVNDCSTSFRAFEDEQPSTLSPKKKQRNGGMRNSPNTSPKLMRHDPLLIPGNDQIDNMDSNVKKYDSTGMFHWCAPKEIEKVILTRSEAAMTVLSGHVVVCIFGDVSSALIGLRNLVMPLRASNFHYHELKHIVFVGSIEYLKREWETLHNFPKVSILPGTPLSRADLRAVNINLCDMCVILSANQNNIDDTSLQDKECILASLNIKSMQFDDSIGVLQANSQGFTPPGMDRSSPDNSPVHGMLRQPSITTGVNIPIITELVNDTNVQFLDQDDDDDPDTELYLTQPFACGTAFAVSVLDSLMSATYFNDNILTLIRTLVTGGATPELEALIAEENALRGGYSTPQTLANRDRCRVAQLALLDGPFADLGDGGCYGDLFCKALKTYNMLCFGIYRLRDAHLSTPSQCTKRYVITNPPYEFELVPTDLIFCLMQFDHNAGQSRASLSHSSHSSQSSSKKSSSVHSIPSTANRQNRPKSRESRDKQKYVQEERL", "test": "Patch clamp, cell excised inside/out membrane patches of PC-3 cells", "format": "cell-based", "conditions": "preliminary", "from_the_text": "as §3, §4, §5"}, "[5]": {"conditions": "50 nM iberiotoxin, listed as Iberiotoxin"}, "[6]": {"conditions": "100 nM 17β-estradiol, listed as 17β-estradiol"}}, "note": "“Also recorded” adds a separate entry of the source.", "data": [{"molecule": "iberiotoxin (QFTDVDCSVSKECWSVCKDLFGVDRGKCMGKKCRCYQ; Iberiotoxin; UniProt P24663 1-37, looked up)", "values": [{"measurement": "reduction of the growth rate of PC-3", "setting": "PC-3; 0.05 μM Iberiotoxin, OPTI-MEM + 0.4% Albu-max", "result": "10-15%"}, {"measurement": "effect on growth of PC-3 (words)", "setting": "PC-3; 50 nM iberiotoxin", "result": "significantly decreased growth rate; also recorded: significant reduction of the growth rate; also recorded: significant growth inhibition; also recorded: could be reduced"}, {"measurement": "effect on estradiol-stimulated growth of BPH-1", "setting": "BPH-1", "result": "completely reversed"}, {"measurement": "effect on estradiol-stimulated growth of BPH-1", "setting": "BPH-1; listed as Iberiotoxin", "result": "blocked the growth stimulus"}, {"measurement": "effect on growth of BPH-1 (words)", "setting": "BPH-1; 50 nM iberiotoxin", "result": "not and no significant effect"}, {"measurement": "effect on growth of BPH-1 (words)", "setting": "BPH-1; [5]", "result": "no effect"}, {"measurement": "effect on whole cell conductances of BPH-1 cells", "setting": "[1]", "result": "no significant effects"}, {"measurement": "effect on whole cell conductances of PC-3 cells", "setting": "[2]", "result": "clear inhibitory effect"}, {"measurement": "effect on estradiol-stimulated growth of LNCaP", "setting": "LNCaP", "result": "completely reversed; also recorded: could be blocked"}, {"measurement": "effect on estradiol-stimulated growth of LNCaP", "setting": "LNCaP; listed as Iberiotoxin", "result": "blocked the growth stimulus"}, {"measurement": "effect on growth of LNCaP (words)", "setting": "LNCaP; 50 nM iberiotoxin", "result": "not and no significant effect and did not react"}, {"measurement": "effect on growth of LNCaP (words)", "setting": "LNCaP; [5]", "result": "no effect"}]}, {"molecule": "C[C@]12CC[C@@H]3c4ccc(O)cc4CC[C@H]3[C@@H]1CC[C@@H]2O", "note": "[estradiol, 17β-estradiol]", "values": [{"measurement": "effect on growth of PC-3 (words)", "setting": "PC-3; 100 nM 17β-estradiol", "result": "not"}, {"measurement": "effect on growth of PC-3 (words)", "setting": "PC-3; [6]", "result": "no effect"}, {"measurement": "effect on growth of BPH-1 (words)", "setting": "BPH-1; 100 nM 17β-estradiol", "result": "growth promoting effect"}, {"measurement": "effect on growth of BPH-1 (words)", "setting": "BPH-1; [6]", "result": "increased proliferation"}, {"measurement": "effect on growth of LNCaP (words)", "setting": "LNCaP; 100 nM 17β-estradiol", "result": "growth promoting effect"}, {"measurement": "effect on growth of LNCaP (words)", "setting": "LNCaP; [6]", "result": "increased proliferation; also recorded: increased its growth rate"}]}, {"molecule": "CC(C)(O)[C@H]1O[C@H]2CC[C@@]3(C)[C@@](O)(CC[C@H]4Cc5c([nH]c6ccccc56)[C@@]43C)C2=CC1=O", "note": "[paxillin]", "values": [{"measurement": "inhibition of potassium channels in excised inside/out membrane patches of BPH-1 cells", "setting": "[3]", "result": "not"}, {"measurement": "inhibition of potassium channels in excised inside/out membrane patches of PC-3 cells", "setting": "[4]", "result": "inhibited"}]}]}
